The source of these data is patent US9630949B2, “Oxoazetidine derivatives, process for the preparation thereof and use thereof in human medicine and in cosmetics” (GALDERMA RESEARCH & DEVELOPMENT, priority 2008, dated 2017).

The target of experiment [1] is hMC1R (Homo sapiens (Human), UniProt Q01726). The experiment in a line: Transactivation test: melanocortin receptors (pCRE-Luc luciferase reporter), hMC1R. Format: cell-based. Particulars: HEK293 transfected with pCRE-Luc and hMC1R; products tested alone (agonist), 6 h incubation; % activity vs NDP-MSH 10 nM; IA: inactive. As to the method: (§1) Transactivation Test: Melanocortin Receptors
Chain of hMC1R (Q01726 whole entry): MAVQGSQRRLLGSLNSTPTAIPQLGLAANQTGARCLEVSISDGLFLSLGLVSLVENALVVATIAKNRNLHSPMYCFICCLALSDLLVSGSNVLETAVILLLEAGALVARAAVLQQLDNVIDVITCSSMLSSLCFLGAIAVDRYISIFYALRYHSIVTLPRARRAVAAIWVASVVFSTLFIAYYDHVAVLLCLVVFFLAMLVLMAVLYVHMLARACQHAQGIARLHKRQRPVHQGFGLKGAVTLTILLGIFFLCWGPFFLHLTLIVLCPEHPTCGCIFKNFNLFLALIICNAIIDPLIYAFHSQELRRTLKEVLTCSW
(§2) HEK293 lines are transfected with the pCRE-Luc and hMC1R, hMC3R, hMC4R or hMC5R vectors. The cells are cultured at 37° C., 5% CO2, in DMEM medium supplemented with 10% of foetal calf serum.
(§3) In the presence of an activator (agonist), the melanocortin receptor will activate the cAMP pathway which, via the CRE-Luc vector, will result in the synthesis of luciferase. After the addition of a lysis buffer containing a luminescent substrate for luciferase, it will be possible to measure the luminescence proportional to the degree of activation or of inhibition of the receptor.
(§4) The products are solubilized at 10 mM in DMSO. They are tested in the form of dose-response at a final DMSO concentration of 0.1%. The range comprising 10 points and one zero begins at 10 μM with 4-fold dilutions. For testing agonists, the products are tested alone. For determining the behaviour of antagonists, the products of interest are tested in the presence of 1 nM NDP-MSH (reference agonist). The cells are seeded at a rate of 5000 cells per well (384 well plate) in serum-free DMEM medium, and incubated overnight at 37° C., 5% CO2.
(§5) The products and the reference ligand (NDP-MSH) are added the following day, and the plates are again incubated for 6 h at 37° C., 5% CO2. After the addition of lysis buffer containing luciferin, the plates are read on a Top-Count instrument. The results are standardized as % activity using the 100% (cells+NDP-MSH at 10 nM) and 0% (cells alone) controls. An EC50 is calculated for each product using the XLFit software. The results are given in nM.
Background: A reporter such as luciferase makes a cellular process visible.

Experiment [2] has as its target hMC4R (Homo sapiens (Human), UniProt P32245). The experiment in a line: Transactivation test: melanocortin receptors (pCRE-Luc luciferase reporter), hMC4R. Format: cell-based. To be noted: HEK293 transfected with pCRE-Luc and hMC4R; products tested alone (agonist), 6 h incubation; % activity vs NDP-MSH 10 nM; IA: inactive. On the procedure: as §1, §2, §3, §4, §5

Each structure is given as a SMILES string.

Chain of hMC4R (P32245 whole entry): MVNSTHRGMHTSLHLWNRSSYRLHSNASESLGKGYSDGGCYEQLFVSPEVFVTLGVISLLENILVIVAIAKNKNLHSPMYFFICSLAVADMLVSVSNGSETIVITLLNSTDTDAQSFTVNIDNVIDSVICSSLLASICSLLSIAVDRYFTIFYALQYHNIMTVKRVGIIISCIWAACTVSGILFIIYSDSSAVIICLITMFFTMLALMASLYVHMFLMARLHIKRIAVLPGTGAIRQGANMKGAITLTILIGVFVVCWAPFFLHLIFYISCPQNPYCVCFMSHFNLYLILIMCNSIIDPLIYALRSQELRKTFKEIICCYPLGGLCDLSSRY

Regarding `COc1ccc(C[C@H](NC(=O)CCc2c[nH]cn2)C(=O)N2CC(OCC3CC3)(c3ccccc3C)C2)cc1` [Compound 14, N-[(S)-2-(3-cyclopropylmethoxy-3-o-tolylazetidin-1-yl)-1-(4-methoxybenzyl)-2-oxoethyl]-3-(1H-imidazol-4-yl)propionamide], the half-maximal effective concentration (EC50) in experiment [1] was 2000 nM; in experiment [2] it was 15000 nM.

As for `CCCCOC1(c2ccccc2C)CN(C(=O)[C@@H](Cc2ccc(OC)cc2)NC(=O)CCc2c[nH]cn2)C1` [Compound 15, N-[(R)-2-(3-butoxy-3-o-tolylazetidin-1-yl)-1-(4-methoxybenzyl)-2-oxoethyl]-3-(1H-imidazol-4-yl)propionamide], the EC50 in experiment [1] is 120 nM; in experiment [2], 4000 nM.

Turning to `CCCCOC1(c2ccccc2C)CN(C(=O)[C@H](Cc2ccc(OC)cc2)NC(=O)CCc2c[nH]cn2)C1` [Compound 16, N-[(S)-2-(3-butoxy-3-o-tolylazetidin-1-yl)-1-(4-methoxybenzyl)-2-oxoethyl]-3-(1H-imidazol-4-yl)propionamide], the EC50 in experiment [1] came to 2000 nM; in experiment [2], 15000 nM.

Turning to `CCOC1(c2ccccc2C)CN(C(=O)[C@@H](Cc2ccc(OC)cc2)NC(=O)CCc2c[nH]cn2)C1` [Compound 17, N-[(R)-2-(3-ethoxy-3-o-tolylazetidin-1-yl)-1-(4-methoxybenzyl)-2-oxoethyl]-3-(1H-imidazol-4-yl)propionamide], the EC50 in experiment [1] was 250 nM; in experiment [2], 8000 nM.

For the compound `CCCCOC1(c2ccccc2)CN(C(=O)[C@@H](CC2CCCCC2)NC(=O)CCc2c[nH]cn2)C1` [Compound 18, N-[(R)-2-(3-butoxy-3-phenylazetidin-1-yl)-1-cyclohexylmethyl-2-oxoethyl]-3-(1H-imidazol-4-yl)propionamide], the EC50 in experiment [1] and in experiment [2] was 8000 nM in each case.

As for `CCCCOC1(c2ccccc2)CN(C(=O)[C@@H](Cc2ccc(Cl)cc2Cl)NC(=O)CCc2c[nH]cn2)C1` [Compound 19, N-[(R)-2-(3-butoxy-3-phenylazetidin-1-yl)-1-(2,4-dichlorobenzyl)-2-oxoethyl]-3-(1H-imidazol-4-yl)propionamide], the EC50 in experiment [1] amounted to 2000 nM; in experiment [2], 120 nM.

Turning to `COc1ccc(C[C@@H](NC(=O)CCc2c[nH]cn2)C(=O)N2CC(OCC3CC3)(c3ccccc3C)C2)cc1` [Compound 20, N-[(R)-2-(3-cyclopropylmethoxy-3-o-tolylazetidin-1-yl)-1-(4-methoxybenzyl)-2-oxoethyl]-3-(1H-imidazol-4-yl)propionamide], the EC50 in experiment [1] was determined as 120 nM; in experiment [2] it was 4000 nM.

`CCCOC1(c2ccccc2C)CN(C(=O)[C@@H](Cc2ccc(OC)cc2)NC(=O)CCc2c[nH]cn2)C1` [Compound 22, N-[(R)-1-(4-methoxybenzyl)-2-oxo-2-(3-propoxy-3-o-tolylazetidin-1-yl)ethyl]-3-(1H-imidazol-4-yl)propionamide]: the concentration giving a half-maximal response (EC50) was found to be 120 nM in experiment [1] and 10000 nM in experiment [2].

Consider `CCCCOC1(c2ccc(F)cc2)CN(C(=O)[C@@H](Cc2ccc(OC)cc2)NC(=O)CCc2c[nH]cn2)C1` [Compound 23, N-[(R)-2-[3-butoxy-3-(4-fluorophenyl)azetidin-1-yl]-1-(4-methoxybenzyl)-2-oxoethyl]-3-(1H-imidazol-4-yl)propionamide], for which the half-maximal effective concentration (EC50) in experiment [1] amounted to 60 nM; in experiment [2] it was 1000 nM.

Turning to `CCCCCOC1(c2ccccc2C)CN(C(=O)[C@@H](Cc2ccc(OC)cc2)NC(=O)CCc2c[nH]cn2)C1` [Compound 24, N-[(R)-1-(4-methoxybenzyl)-2-oxo-2-(3-pentyloxy-3-o-tolylazetidin-1-yl)ethyl]-3-(1H-imidazol-4-yl)propionamide], the EC50 in experiment [1] turned out to be 250 nM; in experiment [2] it was 4000 nM.

Turning to `CCCCCCOC1(c2ccccc2C)CN(C(=O)[C@@H](Cc2ccc(OC)cc2)NC(=O)CCc2c[nH]cn2)C1` [Compound 25, N-[(R)-2-(3-hexyloxy-3-o-tolylazetidin-1-yl)-1-(4-methoxybenzyl)-2-oxoethyl]-3-(1H-imidazol-4-yl)propionamide], the EC50 in experiment [1] came out at 1000 nM; in experiment [2], 8000 nM.

For `CCCCCC1(c2ccccc2)CN(C(=O)[C@@H](Cc2ccc(OC)cc2)NC(=O)CCc2c[nH]cn2)C1` [Compound 26, N-[(R)-1-(4-methoxybenzyl)-2-oxo-2-(3-pentyl-3-phenylazetidin-1-yl)ethyl]-3-(1H-imidazol-4-yl)propionamide], the EC50 in experiment [1] came to 500 nM; in experiment [2], 4000 nM.

Take `CCCCC1(c2ccccc2)CN(C(=O)[C@@H](Cc2ccc(OC)cc2)NC(=O)CCc2c[nH]cn2)C1` [Compound 27, N-[(R)-2-(3-butyl-3-phenylazetidin-1-yl)-1-(4-methoxybenzyl)-2-oxoethyl]-3-(1H-imidazol-4-yl)propionamide]: the results for the EC50 in experiment [1] and in experiment [2] were 500 nM and 8000 nM, respectively.

Regarding `COc1ccc(C[C@@H](NC(=O)CCc2c[nH]cn2)C(=O)N2CC(OCC3CC3)(c3ccccc3)C2)cc1` [Compound 28, N-[(R)-2-(3-cyclopropylmethoxy-3-phenylazetidin-1-yl)-1-(4-methoxybenzyl)-2-oxoethyl]-3-(1H-imidazol-4-yl)propionamide], the EC50 in experiment [1] stood at 1000 nM; in experiment [2], 8000 nM.

Consider `CCCCOC1(c2ccc(F)cc2)CN(C(=O)[C@@H](Cc2cccc(F)c2)NC(=O)CCc2c[nH]cn2)C1` [Compound 31, N-[(R)-2-[3-butoxy-3-(4-fluorophenyl)azetidin-1-yl]-1-(3-fluorobenzyl)-2-oxoethyl]-3-(1H-imidazol-4-yl)propionamide], for which the EC50 in experiment [1] amounted to 500 nM; in experiment [2] it was 4000 nM.

Consider `CCCCOC1(c2ccc(F)cc2)CN(C(=O)[C@@H](Cc2ccc(F)cc2)NC(=O)CCc2c[nH]cn2)C1` [Compound 32, N-[(R)-2-[3-butoxy-3-(4-fluorophenyl)azetidin-1-yl]-1-(4-fluorobenzyl)-2-oxoethyl]-3-(1H-imidazol-4-yl)propionamide], for which the figures for the EC50 in experiment [1] and in experiment [2] were 1000 nM and 4000 nM, respectively.

With `CCCCOC1(c2ccccc2)CN(C(=O)[C@@H](Cc2ccc(F)cc2)NC(=O)CCc2c[nH]cn2)C1` [Compound 33, N-[(R)-2-(3-butoxy-3-phenylazetidin-1-yl)-1-(4-fluorobenzyl)-2-oxoethyl]-3-(1H-imidazol-4-yl)propionamide], the EC50 in experiment [1] was 500 nM; in experiment [2], 2000 nM.

In the case of `CCCCOC1(c2ccc(F)cc2)CN(C(=O)[C@@H](Cc2ccccc2)NC(=O)CCC2=NCC=N2)C1` [Compound 34, N-{(R)-1-benzyl-2-[3-butoxy-3-(4-fluoro-phenyl)azetidin-1-yl]-2-oxoethyl}-3-(4H-imidazol-2-yl)propionamide], the results for the EC50 in experiment [1] and in experiment [2] were 1000 nM and 2000 nM, respectively.

With `CCCCOC1(c2ccccc2)CN(C(=O)[C@@H](Cc2ccccc2)NC(=O)CCc2c[nH]cn2)C1` [Compound 35, N-[(R)-1-benzyl-2-(3-butoxy-3-phenylazetidin-1-yl)-2-oxoethyl]-3-(1H-imidazol-4-yl)propionamide], the EC50 in experiment [1] is 500 nM; in experiment [2], 2000 nM.

Regarding `CCCCOC1(c2ccccc2)CN(C(=O)[C@@H](Cc2ccc(OC)cc2)NC(=O)CCc2c[nH]cn2)C1` [Compound 36, N-[(R)-2-(3-butoxy-3-phenylazetidin-1-yl)-1-(4-methoxybenzyl)-2-oxoethyl]-3-(1H-imidazol-4-yl)propionamide], the EC50 in experiment [1] came to 1000 nM; in experiment [2], 3000 nM.

As to `CCCCCC1(c2ccccc2C)CN(C(=O)[C@@H](Cc2ccc(OC)cc2)NC(=O)CCc2c[nH]cn2)C1` [Compound 37, N-[(R)-1-(4-methoxybenzyl)-2-oxo-2-(3-pentyl-3-o-tolylazetidin-1-yl)ethyl]-3-(1H-imidazol-4-yl)propionamide], the EC50 in experiment [1] worked out at 250 nM; in experiment [2], 2000 nM.

For `CCCCOC1(c2ccccc2C)CN(C(=O)[C@@H](Cc2ccc(OC)cc2)NC(=O)CCc2c[nH]nn2)C1` [Compound 39, N-[(R)-2-(3-butoxy-3-o-tolylazetidin-1-yl)-1-(4-methoxybenzyl)-2-oxoethyl]-3-(1H-[1,2,3]triazol-4-yl)propionamide], the values for the EC50 in experiment [1] and in experiment [2] were 8000 nM and 2000 nM, respectively.

`CCCCOC1(c2ccccc2C)CN(C(=O)[C@@H](Cc2ccc(OC)cc2)NC(=O)CCC2N=NC(C)=N2)C1` (stereo partly drawn) [Compound 40, N-[(R)-2-(3-butoxy-3-o-tolylazetidin-1-yl)-1-(4-methoxybenzyl)-2-oxoethyl]-3-(5-methyl-3H-[1,2,4]triazol-3-yl)propionamide]: the EC50 in experiment [1] came out at 8000 nM; in experiment [2], 500 nM.

For the compound `CCCCOC1(c2ccccc2C)CN(C(=O)[C@@H](Cc2ccc(OC)cc2)NC(=O)CCc2[nH]cnc2C)C1` [Compound 41, N-[(R)-2-(3-butoxy-3-o-tolylazetidin-1-yl)-1-(4-methoxybenzyl)-2-oxoethyl]-3-(5-methyl-3H-imidazol-4-yl)propionamide], the values for the EC50 in experiment [1] and in experiment [2] were 120 nM and 1000 nM, respectively.

One may read the EC50 as the concentration at which the effect is half-maximal.
